Measurements reported in patent US8163509B2, “Biological markers predictive of anti-cancer response to insulin-like growth factor-1 receptor kinase inhibitors” (The Regents of the University of Colorado, A Body Corporate, priority 2008, dated 2012).
Read-outs that look alike come from different tables or passages of the source. Each block holds one molecule with its values, some of them ahead of it.

Key:
Assay in all cases: SRB proliferation assay, 72 h
HCT15 CRC cell line = assay type: cell-based; conditions: Homo sapiens
Procedure: (§1) FIG. 17: Results of cell proliferation assay on the panel of 27 CRC cell lines. Cell proliferation was evaluated by SRB following exposure to OSI-906 for 72 hours. Cells were plated at an optimized density in 96-well plates, incubated overnight at 37° C., and then exposed to a serial dilution of OSI-906. After 72 hours incubation, cells were fixed with trichloroacetic acid and an SRB was performed as described in materials and methods.
(§2) Cell Lines and Culture. […] human colon cancer cell lines, were obtained from American Type Culture Collection (Manassas, Va.). Cells were grown in RPMI medium supplemented with 10% fetal bovine serum, 1% non-essential amino acids, 1% penicillin/streptomycin and were maintained at 37° C. in an incubator under an atmosphere containing 5% CO2. The cells were routinely screened for the presence of mycoplasma (MycoAlert, Cambrex Bio Science, Baltimore, Md.) and were exposed to PQIP when they reached approximately 70% confluence.
(§3) The CRC cell lines were treated with a range of concentrations of PQIP (from 0.05-5 μM) for 72 hours.
(§4) Cell Lines and Culture: Twenty-seven human colon cancer cell lines, were obtained from American Type Culture Collection (Manassas, Va.). The GEO cells were a generous gift from Dr. Fortunato Ciardiello (Cattedra di Oncologia Medica, Dipartimento Medico-Chirurgico di Internistica Clinica e Sperimentale “F Magrassi e A Lanzara,” Seconda Università degli Studi di Napoli, Naples). All cells except GEO were grown in RPMI medium supplemented with 10% fetal bovine serum, 1% non-essential amino acids, 1% penicillin/streptomycin and were maintained at 37° C. in an incubator under an atmosphere containing 5% CO2. GEO cells were grown in DMEM/F12 supplemented with 10% fetal bovine serum, 1% non-essential amino acids, 1% penicillin/streptomycin. The cells were routinely screened for the presence of mycoplasma (MycoAlert, Cambrex Bio Science, Baltimore, Md.) and were exposed to OSI-906 when they reached approximately 70% confluence. OSI-906 was provided by OSI Pharmaceuticals, (Boulder, Colo.) and prepared as a 10 mM stock solution in DMSO.
(§5) Assessment of responsiveness of a panel of CRC cell lines to OSI-906. In order to assess CRC cell lines with differential sensitivity to OSI-906, a panel of 27 CRC cell lines were exposed to increasing concentrations of OSI-906 and proliferation was measured using the SRB assay as described previously (Pitts, T M, et al. Mol Cancer Ther 2009; 8(2):342-9). As depicted in FIG. 17 there was a wide range of sensitivity of the CRC cell lines to OSI-906, the majority of the cell lines failing to reach an IC50 up to 5 μmol/L, but a clear distinction could be made between the cell lines that were sensitive and the cell lines that were resistant.

LS1034 CRC cell line = assay type: cell-based; conditions: Homo sapiens
Procedure: as §1, §2, §3, §4, §5

LS180 CRC cell line = assay type: cell-based; conditions: Homo sapiens
Procedure: as §1, §2, §3, §4, §5

NCI-H508 CRC cell line = assay type: cell-based; conditions: Homo sapiens
Procedure: as §1, §2, §3, §4, §5

SW1417 CRC cell line = assay type: cell-based; conditions: Homo sapiens
Procedure: as §1, §2, §3, §4, §5

SW948 CRC cell line = assay type: cell-based; conditions: Homo sapiens
Procedure: as §1, §2, §3, §4, §5

HT29 CRC cell line = assay type: cell-based, human
Procedure: as §1, §2
(§6) Cytotoxicity and Combination Effects: HT29, HCT116, RKO, and LS513 CRC cell lines were exposed to 0-10 nM SN-38 (7-Ethyl-10-hydroxy-camptothecin), 0-10 μM Oxaliplatin, or 0-50 μM 5-Fluorouracil (5-FU) for 72 hours. HT29, HCT116, RKO, and LS513 CRC cell lines were exposed to PQIP in combination with SN-38, Oxaliplatin or 5-FU. In all combinations, cells were seeded in 96-well flat bottomed plates and left overnight. PQIP and chemotherapy were both added for 72 hours. The results of the combinations were analyzed by the Chou and Talalay method with Calcusyn (Biosoft, Ferguson, Mo.).
as §3
To characterize the potential functionality that the selected genes may play in the sensitivity or resistance to PQIP, resistant and sensitive CRC cell lines were stably transfected with specific shRNA, treated with increasing concentrations of PQIP and proliferation assays performed to observe, if when manipulated, these genes alter responsiveness (i.e. the S or R phenotype). Two resistant cell lines HCT116 and SW480 were transfected with metallothionein 2A (MT-2A) shRNA and were exposed to increasing concentrations of PQIP. […] Both of these transfected cell lines were assayed for proliferation as described above. […] HT29 tumor cells were transfected with shRNA for ALDH1A1, which is up regulated in the PQIP sensitive cell lines.
(§7) Combination treatment of PQIP with Chemotherapy in Colon Cancer Cell Lines: IGF1R is overexpressed in CRC and has been associated with resistance to chemotherapy. Therefore, we investigated the effect of PQIP in combination with standard chemotherapy for CRC. Four CRC cell lines including, two PQIP sensitive and two PQIP resistant, were chosen for combinations. HT29 and LS513 CRC cell lines were classified as sensitive, with IC50's around 0.3 μmol/L. HCT116 and RKO CRC cell lines were classified as resistant, with IC50>5 μmol/L. Concentrations were chosen based on single agent proliferation curves for each compound. Cells were exposed to PQIP and chemotherapy (SN38, oxaliplatin, or 5-Fluorouracil) concurrently for 72 h and combinations were assessed using the SRB assay. […] It thus appears that biomarkers which predict tumor cell sensitivity will also indicate which cells will respond in a synergistic manner to an IGF-1R kinase inhibitor (e.g. PQIP) and chemotherapy (i.e. SN38, oxaliplatin, or 5-Fluorouracil).
Cell Lines and Culture: Twenty-seven human colon cancer cell lines, were obtained from American Type Culture Collection (Manassas, Va.). The GEO cells were a generous gift from Dr. Fortunato Ciardiello (Cattedra di Oncologia Medica, Dipartimento Medico-Chirurgico di Internistica Clinica e Sperimentale “F Magrassi e A Lanzara,” Seconda Università degli Studi di Napoli, Naples). […]

LS513 CRC cell line = assay type: cell-based, human
Procedure: as §1, §2, §6, §3, §7
Cell Lines and Culture: Twenty-seven human colon cancer cell lines, were obtained from American Type Culture Collection (Manassas, Va.). The GEO cells were a generous gift from Dr. Fortunato Ciardiello (Cattedra di Oncologia Medica, Dipartimento Medico-Chirurgico di Internistica Clinica e Sperimentale “F Magrassi e A Lanzara,” Seconda Università degli Studi di Napoli, Naples). All cells except GEO were grown in RPMI medium supplemented with 10% fetal bovine serum, 1% non-essential amino acids, 1% penicillin/streptomycin and were maintained at 37° C. in an incubator under an atmosphere containing 5% CO2. GEO cells were grown in DMEM/F12 supplemented with 10% fetal bovine serum, 1% non-essential amino acids, 1% penicillin/streptomycin. […]

[1] = 72 hours, 0.05-5 μM, read-out: IC50, growth inhibition by PQIP (SRB)
[2] = 72 hours, read-out: IC50, proliferation, OSI-906 (SRB)

- IC50 (HCT15 CRC cell line; HCT-15, 72 hours, 0.05-5 μM, read-out: IC50, growth inhibition by PQIP (SRB)): > 5 µM
- IC50 (NCI-H508 CRC cell line; [1]): > 5 µM
- IC50 (SW1417 CRC cell line; [1]): > 5 µM
- IC50 (SW948 CRC cell line; [1]): > 5 µM
- IC50 (HT29 CRC cell line; HT29, 72 hours, 0.05-5 μM, read-out: IC50, growth inhibition by PQIP (SRB)): ~0.3 µM
- IC50 (HT29 CRC cell line; Homo sapiens, HT-29, 72 h, HT29, 72 hours, 0.05-5 μM, read-out: IC50, growth inhibition by PQIP (SRB)): < 0.5 µM
Structure (SMILES): CN1CCN([C@H]2C[C@@H](c3nc(-c4ccc5ccc(-c6ccccc6)nc5c4)c4c(N)nccn43)C2)CC1 [PQIP, cis-3-[3-(4-Methyl-piperazin-1-yl)-cyclobutyl]1-(2-phenyl-quinolin-7-yl)-imidazo[1,5-a]pyrazin-8-ylamine]
- IC50 (LS1034 CRC cell line; LS-1034, 72 hours, 0.05-5 μM, read-out: IC50, growth inhibition by PQIP (SRB)): > 5 µM
- IC50 (LS180 CRC cell line; [1]): > 5 µM
- combination index (CI) values, PQIP and chemotherapy (HT29 CRC cell line; HT29, PQIP with SN38, oxaliplatin or 5-Fluorouracil concurrently 72 h, nearly all CI values, Chou and Talalay): 0.2-1.0
- shift in sensitivity to PQIP after shRNA knockdown (HT29 CRC cell line; HT29 with ALDH1A1 shRNA knockdown): no left shift in sensitivity
- IC50 (LS513 CRC cell line; Homo sapiens, LS-513, 72 h, LS513, 72 hours, 0.05-5 μM, read-out: IC50, growth inhibition by PQIP (SRB)): < 0.5 µM
- IC50 (LS513 CRC cell line; LS513, 72 hours, 0.05-5 μM, read-out: IC50, growth inhibition by PQIP (SRB)): ~0.3 µM
- combination index (CI) values, PQIP and chemotherapy (LS513 CRC cell line; LS513, PQIP with SN38, oxaliplatin or 5-Fluorouracil concurrently 72 h, nearly all CI values, Chou and Talalay): 0.2-1.0

- IC50 (HCT15 CRC cell line; HCT-15, 72 hours, read-out: IC50, proliferation, OSI-906 (SRB)): > 5 µM
- IC50 (HCT15 CRC cell line; HCT-15, read-out: S/I/R to OSI-906): > 5 µM
- IC50 (NCI-H508 CRC cell line; [2]): > 5 µM
- IC50 (NCI-H508 CRC cell line; read-out: S/I/R to OSI-906): > 5 µM
- IC50 (SW1417 CRC cell line; [2]): > 5 µM
- IC50 (SW1417 CRC cell line; read-out: S/I/R to OSI-906): > 5 µM
- IC50 (SW948 CRC cell line; [2]): > 5 µM
- IC50 (SW948 CRC cell line; read-out: S/I/R to OSI-906): > 5 µM
- IC50 (HT29 CRC cell line; Homo sapiens, HT-29, 72 h, HT29, 72 hours, read-out: IC50, proliferation, OSI-906 (SRB)): ≤ 1.5 µM
- IC50 (HT29 CRC cell line; Homo sapiens, HT-29, HT29, read-out: S/I/R to OSI-906): ≤ 1.5 µM
Structure (SMILES): C[C@]1(O)C[C@@H](c2nc(-c3ccc4ccc(-c5ccccc5)nc4c3)c3c(N)nccn32)C1 [OSI-906, cis-3-[8-amino-1-(2-phenyl-quinolin-7-yl)-imidazo[1,5-a]pyrazin-3-yl]-1-methyl-cyclobutanol]
- IC50 (LS1034 CRC cell line; LS-1034, 72 hours, read-out: IC50, proliferation, OSI-906 (SRB)): ≤ 1.5 µM
- IC50 (LS1034 CRC cell line; LS-1034, read-out: S/I/R to OSI-906): ≤ 1.5 µM
- IC50 (LS180 CRC cell line; [2]): > 5 µM
- IC50 (LS180 CRC cell line; read-out: S/I/R to OSI-906): > 5 µM
- IC50 (LS513 CRC cell line; Homo sapiens, LS-513, 72 h, LS513, 72 hours, read-out: IC50, proliferation, OSI-906 (SRB)): ≤ 1.5 µM
- IC50 (LS513 CRC cell line; Homo sapiens, LS-513, LS513, read-out: S/I/R to OSI-906): ≤ 1.5 µM
